Measurements as given in patent US7109231B2, “Cyclohept[b]indole derivatives” (Eli Lilly and Company, priority 2001, dated 2006).

Target: T1, recombinant human secreted phospholipase A2 (Homo sapiens, UniProt P14555)
T1 sequence (P14555 21-144): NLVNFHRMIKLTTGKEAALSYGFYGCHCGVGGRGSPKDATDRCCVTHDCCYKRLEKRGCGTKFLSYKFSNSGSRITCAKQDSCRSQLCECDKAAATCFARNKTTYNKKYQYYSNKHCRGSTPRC
Experiment: chromogenic assay for inhibitors of recombinant human secreted phospholipase A2
Format: biochemical
Settings: diheptanoyl thio-PC substrate, pH 7.5, 40° C. for 30 minutes, absorbance at 405 nanometers, titrated in triplicate
Excerpt: The following chromogenic assay procedure was used to identify and evaluate inhibitors of recombinant human secreted phospholipase A2. The assay described herein has been adapted for high volume screening using 96 well microtiter plates. A general description of this assay method is found in the article, “Analysis of Human Synovial Fluid Phospholipase A2 on Short Chain Phosphatidylcholine-Mixed Micelles: Development of a Spectrophotometric Assay Suitable for a Microtiterplate Reader”, by Laure J. Reynolds, Lori L. Hughes, and Edward A Dennis, Analytical Biochemistry, 204, pp. 190–197, 1992 (the disclosure of which is incorporated herein by reference): […]
A measured volume of racemic dipheptanoyl thio PC supplied in chloroform at a concentration of 100 mg/ml is taken to dryness and redissolved in 10 millimolar TRITON X-100™ nonionic detergent aqueous solution. […]
• 1. […] Read absorbance of wells at 405 nanometers with an automatic plate reader.
Tests were done in triplicate. […] Compounds initially found to be active were re-assayed to confirm their activity and, if sufficiently active, IC50 values were determined. […] In all cases, % inhibition measured at 405 nanometers generated by enzyme reactions containing inhibitors relative to the uninhibited control reactions was determined. […]

SMILES: NC(=O)C1CCCCc2c1c1c(OCC(=O)O)cccc1n2Cc1ccccc1 (stereo not shown) [Example 1, (5-Benzyl-10-carbamoyl-5,6,7,8,9,10-hexahydro-cyclohepta[b]indol-1-yloxy)acetic Acid]
- IC50: 0.248 µM
